Assay results taken from patent US12715865B2, “Modulators of the integrated stress response pathway” (EVOTEC INTERNATIONAL GMBH, priority 2020, dated 2026).
pIC50: −log10 of the molar value. Like-named read-outs stand apart in the source and are kept apart here.

Tested on: Tunicamycin induced ISR (ATF4) in wild-type HEK293 cells
Test: HEK-ATF4 High Content Imaging assay (ATF4 signal ratio between nucleus and cytoplasm)
Type: cell-based
Conditions: prevention of Tunicamycin induced ISR, 6 hrs incubation, read-out: Activity (IC50, HEK-ATF4 readout)
Protocol: II Biological Assay HEK-ATF4 High Content Imaging Assay
Example compounds were tested in the HEK-ATF4 High Content Imaging assay to assess their pharmacological potency to prevent Tunicamycin induced ISR. Wild-type HEK293 cells were plated in 384-well imaging assay plates at a density of 12,000 cells per well in growth medium (containing DMEM/F12, 10% FBS, 2 mM L-Glutamine, 100 U/mL Penicillin-100 μg/mL Streptomycin) and incubated at 37° C., 5% CO2. 24-hrs later, the medium was changed to 50 μl assay medium per well (DMEM/F12, 0.3% FBS, 2 mM L-Glutamine, 100 U/mL Penicillin-100 μg/mL Streptomycin). Example compounds were serially diluted in dimethyl sulfoxide (DMSO), spotted into intermediate plates and prediluted with assay medium containing 3.3 μM Tunicamycin to give an 11-fold excess of final assay concentration. In addition to the example compound testing area, the plates also contained multiples of control wells for assay normalization purposes, wells containing Tunicamycin but no example compounds (High control), as well as wells containing neither example compound nor Tunicamycin (Low control). The assay was started by transferring 5 μl from the intermediate plate into the assay plates, followed by incubation for 6 hrs at 37° C., 5% CO2. Subsequently, cells were fixed (4% PFA in PBS, 20 min at room temperature) and submitted to indirect ATF4 immunofluorescence staining (primary antibody rabbit anti ATF4, clone D4B8, Cell Signaling Technologies; secondary antibody Alexa Fluor 488 goat anti-rabbit IgG (H+L), Thermofisher Scientific). Nuclei were stained using Hoechst dye (Thermofisher Scientific), and plates were imaged on an Opera Phenix High Content imaging platform equipped with 405 nm and 488 nm excitation. Finally, images were analyzed using script based algorithms. The main readout HEK-ATF4 monitored the ATF4 signal ratio between nucleus and cytoplasm. Tunicamycin induced an increase in the overall ATF4 ratio signal, which was prevented by ISR modulating example compounds. In addition, HEK-CellCount readout was derived from counting the number of stained nuclei corresponding to healthy cells. This readout served as an internal toxicity control.

| SMILES | pIC50 | pIC50 (Homo sapiens, HEK293, 6 h) |
| --- | --- | --- |
| O=C(COc1ccc(Cl)c(F)c1)N[C@@H]1CCN(c2nnc(-c3ccc(Cl)cc3)o2)C[C@H]1O (stereo in doubt) [Example 3, 2-(4-chloro-3-fluorophenoxy)-N-[(3R*,4R*)-1-[5-(4-chlorophenyl)-1,3,4-oxadiazol-2-yl]-3-hydroxypiperidin-4-yl]acetamide] | 6.30 to 9.00 | – |
| O=C(COc1ccc(Cl)c(F)c1)N[C@@H]1CCN(c2nnc(-c3ccc(Cl)cc3)o2)C[C@H]1O (stereo in doubt) [Example 11, 2-(4-Chloro-3-fluorophenoxy)-N-[(3R,4R)-1-[5-(4-chlorophenyl)-1,3,4-oxadiazol-2-yl]-3-hydroxypiperidin-4-yl]acetamide] | 5.70 to 6.30 | – |
| O=C(COc1ccc(Cl)c(F)c1)N[C@H]1CCN(c2nnc(-c3ccc(Cl)cc3)o2)C[C@@H]1O (stereo in doubt) [Example 12, 2-(4-Chloro-3-fluorophenoxy)-N-[(3S,4S)-1-[5-(4-chlorophenyl)-1,3,4-oxadiazol-2-yl]-3-hydroxypiperidin-4-yl]acetamide] | – | 6.30 to 9.00 |
| O=C(COc1ccc(Cl)c(F)c1)NC1CCN(c2nnc(-c3ccc(Cl)cn3)o2)CC1 [Example 1, 2-(4-chloro-3-fluorophenoxy)-N-{1-[5-(5-chloropyridin-2-yl)-1,3,4-oxadiazol-2-yl]piperidin-4-yl}acetamide] | – | 6.30 to 9.00 |
| O=C(COc1cnc(Cl)c(F)c1)NC1CCN(c2nnc(-c3ccc(Cl)cc3)o2)CC1 [Example 2, 2-[(6-chloro-5-fluoropyridin-3-yl)oxy]-N-{1-[5-(4-chlorophenyl)-1,3,4-oxadiazol-2-yl]piperidin-4-yl}acetamide] | – | 6.30 to 9.00 |
| O=C(COc1ccc(Cl)c(F)c1)NC1CCN(c2nnc(-c3ccc(Cl)cc3)o2)CC1 [Example 4, 2-(4-chloro-3-fluoro-phenoxy)-N-[1-[5-(4-chlorophenyl)-1,3,4-oxadiazol-2-yl]-4-piperidyl]acetamide] | – | 6.30 to 9.00 |
| O=C(COc1ccc(Cl)c(F)c1)NC1CCN(c2nnc(CCCC(F)(F)F)o2)CC1 [Example 5, 2-(4-Chloro-3-fluorophenoxy)-N-{1-[5-(4,4,4-trifluorobutyl)-1,3,4-oxadiazol-2-yl]piperidin-4-yl}acetamide] | – | 5.70 to 6.30 |
| O=C(COc1ccc(Cl)c(F)c1)NC1CCCN(c2nnc(-c3ccc(Cl)cc3)o2)CC1 (centres unmarked) [Example 6, 2-(4-chloro-3-fluorophenoxy)-N-{1-[5-(4-chlorophenyl)-1,3,4-oxadiazol-2-yl]azepan-4-yl}acetamide] | – | 5.70 to 6.30 |
| O=C(COc1ccc(Cl)c(F)c1)N[C@H]1[C@@H]2CN(c3nnc(-c4ccc(Cl)cc4)o3)C[C@@H]21 [Example 7, 2-(4-Chloro-3-fluorophenoxy)-N-[(1R,5S,6R)-3-[5-(4-chlorophenyl)-1,3,4-oxadiazol-2-yl]-3-azabicyclo[3.1.0]hexan-6-yl]acetamide] | – | 5.70 to 6.30 |
| O=C(COc1ccc(Cl)c(F)c1)NN1CCN(c2nnc(-c3ccc(Cl)cc3)o2)CC1 [Example 8, 2-(4-Chloro-3-fluorophenoxy)-N-{4-[5-(4-chlorophenyl)-1,3,4-oxadiazol-2-yl]piperazin-1-yl}acetamide] | – | 6.30 to 9.00 |
| O=C(COc1ccc(Cl)c(F)c1)NC1CCN(c2nnc(OCCOC(F)(F)F)o2)CC1 [Example 9, 2-(4-chloro-3-fluorophenoxy)-N-(1-{5-[2-(trifluoromethoxy)ethoxy]-1,3,4-oxadiazol-2-yl}piperidin-4-yl)acetamide] | – | 6.30 to 9.00 |
| O=C(COc1ccc(Cl)c(F)c1)NC1CCN(c2nnc(N3CC(OC(F)(F)F)C3)o2)CC1 [Example 10, 2-(4-chloro-3-fluorophenoxy)-N-(1-{5-[3-(trifluoromethoxy)azetidin-1-yl]-1,3,4-oxadiazol-2-yl}piperidin-4-yl)acetamide] | – | 6.30 to 9.00 |
| O=C(COc1ccc(Cl)c(F)c1)N[C@H]1CCCN(c2nnc(-c3ccc(Cl)cc3)o2)CC1 [Example 13, 2-(4-Chloro-3-fluorophenoxy)-N-[(4S)-1-[5-(4-chlorophenyl)-1,3,4-oxadiazol-2-yl]azepan-4-yl]acetamide] | – | 5.70 to 6.30 |
| O=C(COc1ccc(Cl)c(F)c1)N[C@@H]1CCCN(c2nnc(-c3ccc(Cl)cc3)o2)CC1 [Example 14, 2-(4-chloro-3-fluorophenoxy)-N-[(4R)-1-[5-(4-chlorophenyl)-1,3,4-oxadiazol-2-yl]azepan-4-yl]acetamide] | – | 4.82 to 5.70 |
